Paper PMC3153577 (Biochemistry, 2011)
Read-outs that look alike come from different tables or passages of the source.

Key:
MtDHFR-NADPH = target: T1, MtDHFR-NADPH (Mycobacterium tuberculosis, UniProt P9WNX1); conditions: NADP^+ competition
T1 sequence (P9WNX1 1-161): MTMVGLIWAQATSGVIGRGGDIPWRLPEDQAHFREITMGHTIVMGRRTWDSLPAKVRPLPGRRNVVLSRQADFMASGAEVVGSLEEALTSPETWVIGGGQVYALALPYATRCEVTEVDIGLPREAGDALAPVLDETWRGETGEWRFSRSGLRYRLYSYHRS

MtDHFR = target: T2, MtDHFR (Mycobacterium tuberculosis, UniProt P9WNX1)
T2 sequence (P9WNX1 1-161): T1 sequence (P9WNX1 1-161)

MtDHFR-NADP^+ = target: T3, MtDHFR-NADP^+ (Mycobacterium tuberculosis, UniProt P9WNX1); type: binding; conditions: for koff: competitor NADPH
T3 sequence (P9WNX1 1-161): T1 sequence (P9WNX1 1-161)

[1] = NADPH dissociation from MtDHFR-NADPH-THF
[2] = NADPH dissociation from MtDHFR-NADPH

| Structure (SMILES) | k−4, value obtained by analytical fitting (MtDHFR-NADPH; [1]) [s⁻¹] | k−10, value obtained by analytical fitting (MtDHFR-NADPH; [2]) [s⁻¹] | k4, best-fit value – global fitting (MtDHFR; NADPH association to MtDHFR-THF, not determined experimentally) [M⁻¹ s⁻¹] | k−10, best-fit value – global fitting (MtDHFR; [2]) [s⁻¹] | k−4, best-fit value – global fitting (MtDHFR; [1]) [s⁻¹] | k12, value obtained by analytical fitting (MtDHFR-NADP^+; NADP^+ dissociation from MtDHFR-NADP^+-DHF, NADPH competition) [s⁻¹] | k3, value obtained by analytical fitting (MtDHFR-NADP^+; NADP^+ dissociation from MtDHFR-NADP^+-THF, NADPH competition) [s⁻¹] | k9, value obtained by analytical fitting (MtDHFR-NADP^+; NADP^+ dissociation from MtDHFR-NADP^+, NADPH competition) [s⁻¹] | koff (MtDHFR-NADP^+; NADP^+ from MtDHFR-NADP^+-DHF) [s⁻¹] | koff (MtDHFR-NADP^+; NADP^+ from MtDHFR-NADP^+-THF) [s⁻¹] | koff (MtDHFR-NADP^+; NADP^+ from MtDHFR-NADP^+) [s⁻¹] | k−3, best-fit value – global fitting (MtDHFR; NADP^+ association to MtDHFR-THF, not determined experimentally) [M⁻¹ s⁻¹] | k−9, best-fit value – global fitting (MtDHFR; NADP^+ association to free enzyme, linked to k9 based on KNADP = 0.33 μM) [M⁻¹ s⁻¹] | k9, best-fit value – global fitting (MtDHFR; NADP^+ dissociation from MtDHFR-NADP^+) [s⁻¹] | k12, best-fit value – global fitting (MtDHFR; NADP^+ dissociation from MtDHFR-NADP^+-DHF) [s⁻¹] | k3, best-fit value – global fitting (MtDHFR; NADP^+ dissociation from MtDHFR-NADP^+-THF) [s⁻¹] |
| --- | --- | --- | --- | --- | --- | --- | --- | --- | --- | --- | --- | --- | --- | --- | --- | --- |
| NC(=O)C1=CN([C@@H]2O[C@H](COP(=O)(O)OP(=O)(O)OC[C@H]3O[C@@H](n4cnc5c(N)ncnc54)[C@H](OP(=O)(O)O)[C@@H]3O)[C@@H](O)[C@H]2O)C=CC1 [NADPH, nicotinamide adenine dinucleotide phosphate (reduced form)] | 1.7 ± 0.6 | 0.13 ± 0.01 | 1.01e+08 | 0.08 ± 0.01 | 1.1 ± 0.1 | – | – | – | – | – | – | – | – | – | – | – |
| NC(=O)c1ccc[n+]([C@H]2O[C@@H](COP(=O)([O-])OP(=O)(O)OC[C@H]3O[C@@H](n4cnc5c(N)ncnc54)[C@H](OP(=O)(O)O)[C@@H]3O)[C@H](O)[C@@H]2O)c1 [NADP^+, nicotinamide adenine dinucleotide phosphate (oxidized form)] | – | – | – | – | – | 7.8 ± 0.1 | 8.02 ± 0.02 | 98 ± 4 | 7.8 ± 0.1 | 8.0 ± 0.1 | 97.6 ± 4.1 | 1.09e+08 ± 6e+06 | 2.68e+08 ± 7e+06 | 81 ± 2 | 2.1 ± 0.2 | 7.3 ± 0.1 |
